According to paper doi:10.1101/2021.08.17.455204v3 (biorxiv, 2022):

Assays:
[1] = target: CYP450, 19 (Homo sapiens, UniProt P11511); assay: biochemical; settings: read-out: % inhibition
[2] = target: Progesterone PR-B (Homo sapiens, UniProt P06401); assay: biochemical; settings: read-out: % inhibition
[3] = target: Aldosterone (Rattus norvegicus, UniProt P22199); assay: biochemical; settings: read-out: % inhibition
[4] = target: Estrogen ERα (Homo sapiens, UniProt P03372); assay: biochemical; settings: read-out: % inhibition
[5] = target: Adrenergic α2A (Homo sapiens, UniProt P08913); assay: biochemical; settings: read-out: % inhibition
[6] = target: Adenosine A2A (Homo sapiens, UniProt P29274); assay: biochemical; settings: read-out: % inhibition
[7] = target: Potassium Channel hERG (Homo sapiens, UniProt Q12809); assay: in vitro; settings: crude membrane preparations
[8] = target: Sigma σ1 (Homo sapiens, UniProt Q99720); assay: biochemical; settings: read-out: % inhibition
[9] = target: Muscarinic M2 (Homo sapiens, UniProt P08172); assay: biochemical; settings: read-out: % inhibition
[10] = target: Histamine H1 (Homo sapiens, UniProt P35367); assay: biochemical; settings: read-out: % inhibition
[11] = target: Adenosine A1 (Homo sapiens, UniProt P30542); assay: biochemical; settings: read-out: % inhibition
[12] = target: Angiotensin AT2 (Homo sapiens, UniProt P50052); assay: biochemical; settings: read-out: % inhibition
[13] = target: Adrenergic β1 (Homo sapiens, UniProt P08588); assay: biochemical; settings: read-out: % inhibition
[14] = target: Angiotensin AT1 (Homo sapiens, UniProt P30556); assay: biochemical; settings: read-out: % inhibition
[15] = target: Dopamine D1 (Homo sapiens, UniProt P21728); assay: biochemical; settings: read-out: % inhibition
[16] = target: Adrenergic α1A (Rattus norvegicus, UniProt P43140); assay: biochemical; settings: read-out: % inhibition
[17] = target: Muscarinic M3 (Homo sapiens, UniProt P20309); assay: biochemical; settings: read-out: % inhibition
[18] = target: Sigma σ2 (Rattus norvegicus, UniProt Q5U3Y7); assay: biochemical; settings: read-out: % inhibition
[19] = target: Adrenergic β2 (Homo sapiens, UniProt P07550); assay: biochemical; settings: read-out: % inhibition
[20] = target: Estrogen ERβ (Homo sapiens, UniProt Q92731); assay: biochemical; settings: read-out: % inhibition
[21] = target: Adrenergic α1B (Rattus norvegicus, UniProt P15823); assay: biochemical; settings: read-out: % inhibition
[22] = target: Transporter, Norepinephrine (NET) (Homo sapiens, UniProt P23975); assay: biochemical; settings: read-out: % inhibition
[23] = target: Dopamine D2s (Homo sapiens, UniProt P14416); assay: biochemical; settings: read-out: % inhibition
[24] = target: Muscarinic M5 (Homo sapiens, UniProt P08912); assay: biochemical; settings: read-out: % inhibition
[25] = target: Opiate μ (OP3, MOP) (Homo sapiens, UniProt P35372); assay: biochemical; settings: read-out: % inhibition
[26] = target: Nicotinic Acetylcholine α3β4 (Homo sapiens, UniProt P30926+P32297); assay: biochemical; settings: read-out: % inhibition
[27] = target: Dopamine D3 (Homo sapiens, UniProt P35462); assay: biochemical; settings: read-out: % inhibition
[28] = target: HMG-CoA Reductase (Homo sapiens, UniProt P04035); assay: biochemical; settings: read-out: % inhibition
[29] = target: Monoamine Oxidase MAO-B (Homo sapiens, UniProt P27338); assay: biochemical; settings: read-out: % inhibition
[30] = target: Protein Tyrosine Kinase, Src (Homo sapiens, UniProt P12931); assay: biochemical; settings: read-out: % inhibition
[31] = target: Monoamine Oxidase MAO-A (Homo sapiens, UniProt P21397); assay: biochemical; settings: read-out: % inhibition
[32] = target: Peptidase, Renin (Homo sapiens, UniProt P00797); assay: biochemical; settings: read-out: % inhibition
[33] = target: Protein Tyrosine Kinase, ABL1 (Homo sapiens, UniProt P00519); assay: biochemical; settings: read-out: % inhibition
[34] = target: Glucocorticoid (Homo sapiens, UniProt P04150); assay: biochemical; settings: read-out: % inhibition
[35] = target: SERCA2a (guinea-pig cardiac SR microsomes) (Cavia porcellus, UniProt A0A286XD73); assay: […]-ATP hydrolysis; type: biochemical; settings: 37 °C; normal guinea-pig heart SR microsomes; activation; PLN present
[36] = target: Androgen (Testosterone) (Homo sapiens, UniProt P10275); assay: biochemical; settings: read-out: % inhibition
[37] = target: Peptidase, Angiotensin Converting Enzyme (Oryctolagus cuniculus, UniProt P12822); assay: biochemical; settings: read-out: % inhibition
[38] = target: Insulin (Rattus norvegicus, UniProt P15127); assay: biochemical; settings: read-out: % inhibition
[39] = target: Na+/K+ ATPase alpha1 isoform from dog kidney (Canis lupus, UniProt P50997); assay: […]-ATP hydrolysis, ouabain-sensitive ATPase inhibition; type: biochemical

Adrenergic α2A, sequence (P08913 whole entry): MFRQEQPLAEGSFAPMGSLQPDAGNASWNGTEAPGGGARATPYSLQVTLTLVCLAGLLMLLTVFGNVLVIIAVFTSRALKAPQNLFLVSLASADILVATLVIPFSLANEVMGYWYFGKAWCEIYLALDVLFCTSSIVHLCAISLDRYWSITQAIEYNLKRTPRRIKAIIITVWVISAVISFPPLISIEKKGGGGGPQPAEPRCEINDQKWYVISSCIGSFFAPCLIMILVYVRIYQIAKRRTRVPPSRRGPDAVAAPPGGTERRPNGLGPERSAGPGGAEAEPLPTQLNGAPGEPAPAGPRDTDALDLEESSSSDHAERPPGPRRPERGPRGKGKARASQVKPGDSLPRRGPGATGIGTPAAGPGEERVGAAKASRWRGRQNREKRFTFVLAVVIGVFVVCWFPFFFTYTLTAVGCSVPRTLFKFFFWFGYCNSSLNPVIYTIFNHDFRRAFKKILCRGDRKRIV
Adenosine A2A, sequence (P29274 whole entry): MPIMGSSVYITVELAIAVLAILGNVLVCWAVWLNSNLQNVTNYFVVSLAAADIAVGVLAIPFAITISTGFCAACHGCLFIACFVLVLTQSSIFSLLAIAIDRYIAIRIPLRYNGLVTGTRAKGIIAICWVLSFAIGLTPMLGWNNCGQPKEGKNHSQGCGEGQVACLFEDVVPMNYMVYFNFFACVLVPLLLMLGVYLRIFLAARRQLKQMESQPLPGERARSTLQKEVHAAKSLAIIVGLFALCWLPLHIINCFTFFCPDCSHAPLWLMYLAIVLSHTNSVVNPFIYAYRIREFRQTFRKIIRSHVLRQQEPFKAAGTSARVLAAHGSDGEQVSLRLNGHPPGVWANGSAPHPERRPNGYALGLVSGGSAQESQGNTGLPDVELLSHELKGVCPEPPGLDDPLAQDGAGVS
HMG-CoA Reductase, sequence (P04035 whole entry): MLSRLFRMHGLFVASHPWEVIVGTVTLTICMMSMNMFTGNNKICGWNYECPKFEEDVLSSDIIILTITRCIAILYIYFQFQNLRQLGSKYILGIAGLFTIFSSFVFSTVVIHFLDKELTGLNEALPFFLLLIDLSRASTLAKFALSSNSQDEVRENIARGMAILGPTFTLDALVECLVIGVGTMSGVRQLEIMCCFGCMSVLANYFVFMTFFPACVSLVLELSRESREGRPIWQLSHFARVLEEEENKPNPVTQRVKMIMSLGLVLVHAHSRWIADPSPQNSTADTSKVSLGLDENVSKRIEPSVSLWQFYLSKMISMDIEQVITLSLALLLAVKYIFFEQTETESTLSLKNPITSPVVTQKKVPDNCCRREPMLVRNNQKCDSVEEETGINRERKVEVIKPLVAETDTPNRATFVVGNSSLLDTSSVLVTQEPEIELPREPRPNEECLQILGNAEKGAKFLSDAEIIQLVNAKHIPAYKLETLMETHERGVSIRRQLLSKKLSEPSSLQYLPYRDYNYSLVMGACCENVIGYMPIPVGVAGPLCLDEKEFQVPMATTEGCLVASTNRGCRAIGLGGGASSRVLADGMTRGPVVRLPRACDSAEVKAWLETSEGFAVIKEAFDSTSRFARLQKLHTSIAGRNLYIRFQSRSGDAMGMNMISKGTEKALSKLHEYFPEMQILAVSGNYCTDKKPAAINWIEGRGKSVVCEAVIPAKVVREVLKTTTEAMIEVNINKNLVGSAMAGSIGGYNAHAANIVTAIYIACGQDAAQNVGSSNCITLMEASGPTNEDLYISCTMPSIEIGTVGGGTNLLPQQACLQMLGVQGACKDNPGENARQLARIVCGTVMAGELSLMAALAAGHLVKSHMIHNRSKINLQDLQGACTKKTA
Muscarinic M3, sequence (P20309 whole entry): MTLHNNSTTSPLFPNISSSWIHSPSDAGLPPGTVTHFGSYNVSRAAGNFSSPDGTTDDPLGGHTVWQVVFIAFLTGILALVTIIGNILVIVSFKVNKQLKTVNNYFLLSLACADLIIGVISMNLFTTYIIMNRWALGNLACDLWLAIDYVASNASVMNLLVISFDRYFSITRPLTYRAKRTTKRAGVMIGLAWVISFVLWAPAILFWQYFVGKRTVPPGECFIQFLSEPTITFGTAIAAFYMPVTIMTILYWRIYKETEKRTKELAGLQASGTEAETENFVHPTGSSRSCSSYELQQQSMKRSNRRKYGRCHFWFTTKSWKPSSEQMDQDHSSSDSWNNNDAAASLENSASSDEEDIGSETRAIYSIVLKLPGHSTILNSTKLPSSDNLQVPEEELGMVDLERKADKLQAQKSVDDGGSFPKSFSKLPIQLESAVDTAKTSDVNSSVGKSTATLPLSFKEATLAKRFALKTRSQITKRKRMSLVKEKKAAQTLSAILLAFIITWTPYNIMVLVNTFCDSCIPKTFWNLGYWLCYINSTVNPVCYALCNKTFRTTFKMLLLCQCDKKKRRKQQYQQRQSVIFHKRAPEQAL
Progesterone PR-B, sequence (P06401 whole entry): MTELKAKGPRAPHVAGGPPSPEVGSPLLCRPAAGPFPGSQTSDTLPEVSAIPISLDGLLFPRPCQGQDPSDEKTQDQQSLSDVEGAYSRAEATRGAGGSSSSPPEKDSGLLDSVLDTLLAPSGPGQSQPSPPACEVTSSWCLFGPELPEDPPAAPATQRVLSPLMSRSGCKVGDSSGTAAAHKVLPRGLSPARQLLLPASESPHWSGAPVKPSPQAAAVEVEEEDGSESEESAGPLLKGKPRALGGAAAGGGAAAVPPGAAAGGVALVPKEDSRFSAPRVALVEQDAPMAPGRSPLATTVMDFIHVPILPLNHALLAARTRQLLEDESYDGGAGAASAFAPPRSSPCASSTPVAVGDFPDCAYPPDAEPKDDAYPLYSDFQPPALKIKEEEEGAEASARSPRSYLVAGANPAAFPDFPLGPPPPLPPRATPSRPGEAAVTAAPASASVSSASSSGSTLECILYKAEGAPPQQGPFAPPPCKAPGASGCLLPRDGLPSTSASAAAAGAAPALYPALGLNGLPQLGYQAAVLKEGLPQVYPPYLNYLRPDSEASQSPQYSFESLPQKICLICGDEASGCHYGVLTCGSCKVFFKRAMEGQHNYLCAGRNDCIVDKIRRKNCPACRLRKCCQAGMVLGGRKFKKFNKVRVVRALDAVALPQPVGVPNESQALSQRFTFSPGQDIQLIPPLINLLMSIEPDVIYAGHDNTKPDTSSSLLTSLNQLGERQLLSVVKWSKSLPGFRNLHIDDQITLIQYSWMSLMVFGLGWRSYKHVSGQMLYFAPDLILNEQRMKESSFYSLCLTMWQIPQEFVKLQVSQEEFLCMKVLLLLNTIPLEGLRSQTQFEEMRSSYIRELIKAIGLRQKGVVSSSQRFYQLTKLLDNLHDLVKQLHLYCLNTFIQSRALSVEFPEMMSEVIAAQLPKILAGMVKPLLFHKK
Insulin, sequence (P15127 whole entry, canonical isoform): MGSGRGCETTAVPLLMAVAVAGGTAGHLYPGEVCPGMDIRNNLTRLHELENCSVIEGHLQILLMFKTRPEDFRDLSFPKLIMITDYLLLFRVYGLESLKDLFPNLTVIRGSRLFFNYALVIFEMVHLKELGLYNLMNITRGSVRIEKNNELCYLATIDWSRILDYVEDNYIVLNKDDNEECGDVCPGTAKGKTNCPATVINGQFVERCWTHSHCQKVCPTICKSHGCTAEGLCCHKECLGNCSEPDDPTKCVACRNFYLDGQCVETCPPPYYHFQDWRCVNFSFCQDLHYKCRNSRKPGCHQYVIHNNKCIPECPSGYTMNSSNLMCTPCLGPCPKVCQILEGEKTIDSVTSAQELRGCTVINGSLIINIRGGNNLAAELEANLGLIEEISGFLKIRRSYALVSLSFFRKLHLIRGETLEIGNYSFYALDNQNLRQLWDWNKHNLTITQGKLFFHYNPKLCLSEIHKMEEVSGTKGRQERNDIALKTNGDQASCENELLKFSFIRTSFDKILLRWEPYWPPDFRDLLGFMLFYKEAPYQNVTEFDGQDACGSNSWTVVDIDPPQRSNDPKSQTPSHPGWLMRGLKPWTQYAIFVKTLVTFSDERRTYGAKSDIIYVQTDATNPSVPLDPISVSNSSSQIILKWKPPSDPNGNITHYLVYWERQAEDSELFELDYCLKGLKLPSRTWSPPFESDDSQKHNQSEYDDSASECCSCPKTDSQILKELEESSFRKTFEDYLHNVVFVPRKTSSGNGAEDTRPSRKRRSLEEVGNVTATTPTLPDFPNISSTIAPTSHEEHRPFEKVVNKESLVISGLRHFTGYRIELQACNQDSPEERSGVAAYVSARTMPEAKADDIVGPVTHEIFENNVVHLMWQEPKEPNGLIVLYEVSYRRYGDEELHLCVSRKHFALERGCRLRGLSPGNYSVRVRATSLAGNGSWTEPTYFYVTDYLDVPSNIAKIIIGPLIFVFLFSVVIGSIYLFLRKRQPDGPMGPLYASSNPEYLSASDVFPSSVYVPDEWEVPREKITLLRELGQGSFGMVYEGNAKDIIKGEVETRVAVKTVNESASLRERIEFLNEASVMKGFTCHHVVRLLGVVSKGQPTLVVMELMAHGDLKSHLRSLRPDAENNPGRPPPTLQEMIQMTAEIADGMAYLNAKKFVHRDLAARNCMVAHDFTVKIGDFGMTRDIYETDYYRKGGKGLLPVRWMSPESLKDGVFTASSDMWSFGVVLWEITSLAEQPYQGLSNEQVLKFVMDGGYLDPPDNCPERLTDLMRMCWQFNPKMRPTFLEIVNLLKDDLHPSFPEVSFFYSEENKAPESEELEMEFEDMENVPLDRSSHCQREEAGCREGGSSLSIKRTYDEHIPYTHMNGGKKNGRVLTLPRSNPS
Dopamine D3, sequence (P35462 whole entry): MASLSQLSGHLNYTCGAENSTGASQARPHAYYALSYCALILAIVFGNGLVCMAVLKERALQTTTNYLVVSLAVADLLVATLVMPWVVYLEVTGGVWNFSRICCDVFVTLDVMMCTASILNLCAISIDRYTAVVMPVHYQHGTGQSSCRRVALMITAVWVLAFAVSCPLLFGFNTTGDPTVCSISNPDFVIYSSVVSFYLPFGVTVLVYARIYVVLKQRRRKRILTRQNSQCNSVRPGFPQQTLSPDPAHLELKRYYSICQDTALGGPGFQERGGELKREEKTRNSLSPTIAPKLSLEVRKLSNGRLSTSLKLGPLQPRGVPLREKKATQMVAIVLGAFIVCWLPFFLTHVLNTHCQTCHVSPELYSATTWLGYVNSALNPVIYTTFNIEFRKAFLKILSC

C[C@]12CCC(=NOCC(=O)O)C[C@@H]1[C@H](O)C[C@@H]1[C@@H]2CC[C@]2(C)C(=O)CC[C@@H]12 (mixture of isomers) [PST3093, (E,Z)-[(6-beta-hydroxy-17-oxoandrostan-3-ylidene)amino]oxyacetic acid]
inhibition at 10 µM [1]: 12%
inhibition at 10 µM [2]: -15%
inhibition at 10 µM [3]: 5%
inhibition at 10 µM [4]: -6%
inhibition at 10 µM [5]: -5%
inhibition at 10 µM [6]: -6%
inhibition at 10 µM [7]: 10%
inhibition at 10 µM [8]: 7%
inhibition at 10 µM [9]: -7%
inhibition at 10 µM [10]: -3%
inhibition at 10 µM [11]: -2%
inhibition at 10 µM [12]: 7%
inhibition at 10 µM [13]: -4%
inhibition at 10 µM [14]: -1%
inhibition at 10 µM [15]: 3%
inhibition at 10 µM [16]: 2%
inhibition at 10 µM [17]: 4%
inhibition at 10 µM [18]: 12%
inhibition at 10 µM [19]: 7%
inhibition at 10 µM [20]: 7%
inhibition at 10 µM [21]: 0%
inhibition at 10 µM [22]: 4%
inhibition at 10 µM [23]: 26%
inhibition at 10 µM [24]: 5%
inhibition at 10 µM [25]: -5%
inhibition at 10 µM [26]: 1%
inhibition at 10 µM [27]: 1%
inhibition at 10 µM [28]: -2%
inhibition at 10 µM [29]: -3%
inhibition at 10 µM [30]: -1%
inhibition at 10 µM [31]: 2%
inhibition at 10 µM [32]: 6%
inhibition at 10 µM [33]: 3%
inhibition at 10 µM [34]: 8%
% reduction of KdCa at 100 nM [35]: ~ 20%
inhibition at 10 µM [36]: 3%
inhibition at 10 µM [37]: 3%
inhibition at 10 µM [38]: 6%
IC50 [39]: > 100 µM
